According to patent US9238797B2, “Method for production of pluripotent stem cell” (TAKARA BIO INC., priority 2008, dated 2016):

Tested on: human skin fibroblast derived from four different donors
Assay: Gene transfer efficiency, double positive cells, fibroblast of four donors, gene transfer two times (Example 12)
Assay type: cell-based
Conditions: sixth day of culture, N=2
Description: Gene transfer efficiencies using a plurality of retrovirus vectors with Retronectin or polybrene were further compared. Introduction of a fluorescent protein gene was carried out targeting human skin fibroblast derived from four different donors, using a method of performing gene transfer two times as in the pluripotent stem cell inducing experiment. In the present Example, the cell A indicates derived from a person, the cell B indicates derived from a person, the cell C indicates derived from a person, and the cell D indicates derived from a person (all manufactured by Lonza).
According to the same manner as that of Example 8-(1), immobilization of Retronectin on a culture plate was carried out.
According to the same manner as that of Example 8-(2), gene transfer was carried out (day 0 of culturing), provided that a group in which a virus solution was diluted 10-fold, 100-fold or 1000-fold with 10F-DMEM was set.
According to the same manner as that of Example 8-(3), a gene transfer efficiency was measured on the sixth day of culture. […] In addition, the number in the Table indicates an average value of N=2.

Substance: Retronectin: fragment of fibronectin having a heparin-II binding region (registered trademark, CH-296, TAKARA BIO INC.)
- Ratio of double positive cells (Cell A, Virus 10-fold dilution): 55.9
- Ratio of double positive cells (Cell A, Virus 100-fold dilution): 61.6
- Ratio of double positive cells (Cell A, Virus 1000-fold dilution): 51.9
- Ratio of double positive cells (Cell A, Virus stock solution): 42.5
- Ratio of double positive cells (Cell B, Virus 10-fold dilution): 49.7
- Ratio of double positive cells (Cell B, Virus 100-fold dilution): 57.7
- Ratio of double positive cells (Cell B, Virus 1000-fold dilution): 48.7
- Ratio of double positive cells (Cell B, Virus stock solution): 35.9
- Ratio of double positive cells (Cell C, Virus 10-fold dilution): 54.6
- Ratio of double positive cells (Cell C, Virus 100-fold dilution): 60.2
- Ratio of double positive cells (Cell C, Virus 1000-fold dilution): 46.4
- Ratio of double positive cells (Cell C, Virus stock solution): 42.1
- Ratio of double positive cells (Cell D, Virus 10-fold dilution): 54.2
- Ratio of double positive cells (Cell D, Virus 100-fold dilution): 63.2
- Ratio of double positive cells (Cell D, Virus 1000-fold dilution): 51.0
- Ratio of double positive cells (Cell D, Virus stock solution): 38.4
